Experimental data reported in US20130302282A1, “Inhibitors of Hepatitis C Virus” (priority 2010, published 2013).
Like-named read-outs stand apart in the source and are kept apart here.

System: 1b_Huh-Luc/Neo-ET cell line (bicistronic genotype 1b replicon in Huh 7 cells)
Experiment: HCV 1b replicon assay, luciferase readout
Assay type: cell-based, HCV genotype 1b
Description: Biological activity of the compounds of the invention was determined using an HCV replicon assay. The 1b_Huh-Luc/Neo-ET cell line persistently expressing a bicistronic genotype 1b replicon in Huh 7 cells was obtained from ReBLikon GMBH. This cell line was used to test compound inhibition using luciferase enzyme activity readout as a measurement of compound inhibition of replicon levels.
On Day 1 (the day after plating), each compound is added in triplicate to the cells. Plates incubated for 72 […] prior to running the luciferase assay. Enzyme activity was measured using a Bright-Glo Kit (cat. number E2620) manufactured by Promega Corporation. The following equation was used to generate a percent control value for each compound.
%Control=(Average Compound Value/Average Control)*100
The EC50 value was determined using GraphPad Prism and the following equation:
Y=Bottom+(Top−Bottom)/(1+10̂((LogIC50−X)*HillSlope))
EC50 values of compounds are repeated several times in the replicon assay.

[1] = Hepatitis C virus, Huh-7, 1b_Huh-Luc/Neo-ET cell line, read-out: EC50, half-maximal inhibition of HCV 1b replication
[2] = Hepatitis C virus, Huh-7, class symbol, HCV genotype 1b replicon, read-out: Inhibition of HCV genotype 1b replicon
[3] = class symbol, HCV genotype 1b replicon, read-out: Inhibition of HCV genotype 1b replicon

SMILES	EC50 [1] [nM]	EC50 [2] [nM]	EC50 [3] [nM]
CNC(=O)c1c(-c2ccc(F)cc2)oc2cc3c(cc12)C(C)N(C(=O)c1ccc(F)cc1)CCN3S(C)(=O)=O (stereo not shown) [Compound B134]	10 to 100	10 to 100	–
CNC(=O)c1c(-c2ccc(Oc3ccc(F)cc3)cc2)oc2cc3c(cc12)C=CCCN3S(C)(=O)=O [Compound B135]	–	100 to 1000	–
CNC(=O)c1c(-c2ccc(Oc3ccc(F)cc3)cc2)oc2cc3c(cc12)CCCCN3S(C)(=O)=O [Compound B136]	10 to 100	10 to 100	–
CNC(=O)c1c(-c2ccc(F)cc2)oc2cc3c(cc12)C(C)n1nncc1CN3S(C)(=O)=O (stereo not shown) [Compound B138]	≤ 10	< 10	–
CNC(=O)c1c(-c2ccc(F)cc2)oc2cc3c(cc12)C(C)N(CC(F)F)CCN3S(C)(=O)=O (stereo not shown) [Compound B139]	≤ 10	< 10	–
CNC(=O)c1c(-c2ccc(F)cc2)oc2cc3c(cc12)C(C)N(Cc1ccc(F)cc1)CCN3S(C)(=O)=O (stereo not shown) [Compound B142]	10 to 100	10 to 100	–
CCN1CCN(S(C)(=O)=O)c2cc3oc(-c4ccc(F)cc4)c(C(=O)NC)c3cc2C1C (stereo not shown) [Compound B144]	10 to 100	10 to 100	–
CNC(=O)c1c(-c2ccc(F)cc2)oc2cc3c(cc12)C(C)N(CCF)CCN3S(C)(=O)=O (stereo not shown) [Compound B147]	10 to 100	10 to 100	–
CNC(=O)c1c(-c2ccc(F)cc2)oc2cc3c(cc12)C(C(F)(F)F)OCCN3S(C)(=O)=O (stereo not shown) [Compound B148]	≤ 10	< 10	–
CNC(=O)c1c(-c2ccc(F)cc2)oc2cc3c(cc12)C(C)N(CC(=O)O)CCN3S(C)(=O)=O (stereo not shown) [Compound B149]	–	> 1000	–
CNC(=O)c1c(-c2ccc(F)cc2)oc2cc3c(cc12)C(C)N(S(C)(=O)=O)CCN3S(C)(=O)=O (stereo not shown) [Compound B157]	10 to 100	10 to 100	–
CNC(=O)c1c(-c2ccc(Oc3ccc(F)cc3)cc2)oc2cc3c(cc12)C(C)n1nncc1CN3S(C)(=O)=O (stereo not shown) [Compound B158]	≤ 10	< 10	–
CNC(=O)c1c(-c2ccc(F)cc2)oc2cc3c(cc12)C(C)N([C@H](C)c1ccc(F)cc1)CCN3S(C)(=O)=O (stereo partly shown) [Compound B159]	10 to 100	10 to 100	–
[2H]C([2H])([2H])NC(=O)c1c(-c2ccc(Oc3ccc(F)cc3)cc2)oc2cc3c(cc12)C(C)N(C)CCN3S(C)(=O)=O (stereo not shown) [Compound B160]	10 to 100	10 to 100	–
CNC(=O)c1c(-c2ccc(F)cc2)oc2cc3c(cc12)C(C)N(c1ccc(F)cc1)CCN3S(C)(=O)=O (stereo not shown) [Compound B165]	10 to 100	10 to 100	–
CC1c2cc3c(-c4ncc[nH]4)c(-c4ccc(Oc5ccc(F)cc5)cc4)oc3cc2N(S(C)(=O)=O)CCN1C (stereo not shown) [Compound B166]	10 to 100	10 to 100	–
CNC(=O)c1c(-c2ccc(Oc3ccc(F)cc3)cc2)oc2cc3c(cc12)C(C)OC(C)(C)CN3S(C)(=O)=O (stereo not shown) [Compound B167]	10 to 100	10 to 100	–
CNC(=O)c1c(-c2ccc(Oc3ccc(F)cc3)cc2)oc2cc3c(cc12)C(C)OC(C)CN3S(C)(=O)=O (stereo not shown) [Compound B168]	≤ 10	< 10	–
CNC(=O)c1c(-c2ccc(F)cc2)oc2cc3c(cc12)C(C)N(C)C(=O)CN3S(C)(=O)=O (stereo not shown) [Compound B172]	10 to 100	10 to 100	–
CNC(=O)c1c(-c2ccc(F)cc2)oc2cc3c(cc12)C(C)NC(=O)CN3S(C)(=O)=O (stereo not shown) [Compound B173]	10 to 100	10 to 100	–
CNC(=O)c1c(-c2ccc(Oc3ccc(F)cc3)cc2)oc2cc3c(cc12)C(C)N(C)C(=O)CN3S(C)(=O)=O (stereo not shown) [Compound B174]	10 to 100	10 to 100	–
CNC(=O)c1c(-c2ccc(Oc3ccc(F)cc3)cc2)oc2cc3c(cc12)C(C)NC(=O)CN3S(C)(=O)=O (stereo not shown) [Compound B175]	10 to 100	10 to 100	–
CNC(=O)c1c(-c2ccc(Oc3ccc(F)cc3)cc2)oc2cc3c(cc12)C(C)OC1(CC1)CN3S(C)(=O)=O (stereo not shown) [Compound B178]	10 to 100	10 to 100	–
CNC(=O)c1c(-c2ccc(F)cc2)oc2cc3c(cc12)C(C)OC(C)(C)CN3S(C)(=O)=O (stereo not shown) [Compound B183]	10 to 100	10 to 100	–
CNC(=O)c1c(-c2ccc(F)cc2)oc2cc3c(cc12)C(C)OC1(CC1)CN3S(C)(=O)=O (stereo not shown) [Compound B188]	10 to 100	10 to 100	–
CNC(=O)c1c(-c2ccc(F)cc2)oc2cc3c(cc12)C(C)n1nnnc1CN3S(C)(=O)=O (stereo not shown) [Compound B189]	10 to 100	10 to 100	–
CNC(=O)c1c(-c2ccc(F)cc2)oc2cc3c(cc12)C(C)OC(C)CN3S(C)(=O)=O (stereo not shown) [Compound B190]	≤ 10	< 10	–

SMILES	EC50 [1] [nM]	EC50 [2] [nM]	EC50 [3] [nM]
CNC(=O)c1c(-c2ccc(Oc3ccc(F)cc3)cc2)oc2cc3c(cc12)C(C)OC(CO)CN3S(C)(=O)=O (stereo not shown) [Compound B191]	–	–	< 10
CNC(=O)c1c(-c2ccc(F)cc2)oc2cc3c(cc12)C(C)OC(CO)CN3S(C)(=O)=O (stereo not shown) [Compound B195]	10 to 100	10 to 100	–
CNC(=O)c1c(-c2ccc(F)cc2)oc2cc3c(cc12)C(C)OC(CS(C)(=O)=O)CN3S(C)(=O)=O (stereo not shown) [Compound B196]	≤ 10	< 10	–
CC1CCCN(S(C)(=O)=O)c2cc3oc(-c4ccc(Oc5ccc(F)cc5)cc4)c(-c4ncc[nH]4)c3cc21 (stereo not shown) [Compound B198]	≤ 10	< 10	–
CNC(=O)c1c(-c2ccc(F)cc2)oc2cc3c(cc12)C(C)c1ccccc1CN3S(C)(=O)=O (stereo not shown) [Compound B199]	10 to 100	10 to 100	–
CNC(=O)c1c(-c2ccc(F)cc2)oc2cc3c(cc12)CCc1ccccc1CN3S(C)(=O)=O [Compound B200]	10 to 100	10 to 100	–
CC1OCCN(S(C)(=O)=O)c2cc3oc(-c4ccc(Oc5ccc(F)cc5)cc4)c(-c4ncc[nH]4)c3cc21 (stereo not shown) [Compound B202]	10 to 100	10 to 100	–
CNC(=O)c1c(-c2ccc(F)cc2)oc2cc3c(cc12)C(C)OC(CN1CCOCC1)CN3S(C)(=O)=O (stereo not shown) [Compound B205]	10 to 100	10 to 100	–
CNC(=O)c1c(-c2ccc(Oc3ccc(F)cc3)cc2)oc2cc3c(cc12)[C@@H](C)O[C@@H](CS(C)(=O)=O)CN3S(C)(=O)=O [Compound B206]	–	100 to 1000	–
CNC(=O)c1c(-c2ccc(F)cc2)oc2cc3c(cc12)C(C)O[C@@H](c1ccc(F)cc1)CN3S(C)(=O)=O (stereo partly shown) [Compound B210]	10 to 100	10 to 100	–
CNC(=O)c1c(-c2ccc(F)cc2)oc2cc3c(cc12)[C@@H](C)O[C@@H](CO)CN3S(C)(=O)=O [Compound B211]	–	> 1000	–
CNC(=O)c1c(-c2ccc(F)cc2)oc2cc3c(cc12)[C@@H](C)O[C@@H](CS(C)(=O)=O)CN3S(C)(=O)=O [Compound B213]	–	> 1000	–
CNC(=O)c1c(-c2ccc(F)cc2)oc2cc3c(cc12)[C@H](C)O[C@H](CS(C)(=O)=O)CN3S(C)(=O)=O [Compound B215]	10 to 100	–	10 to 100
CNC(=O)c1c(-c2ccc(Oc3ccc(F)cc3)cc2)oc2cc3c(cc12)[C@H](C)O[C@H](CS(C)(=O)=O)CN3S(C)(=O)=O [Compound B216]	10 to 100	–	10 to 100
CNC(=O)c1c(-c2ccc(F)cc2)oc2cc3c(cc12)[C@@H](C)O[C@H](CO)CN3S(C)(=O)=O [Compound B217]	10 to 100	10 to 100	–
CNC(=O)c1c(-c2ccc(F)cc2)oc2cc3c(cc12)C(C)OC(CN=[N+]=[N-])CN3S(C)(=O)=O (stereo not shown) [Compound B218]	≤ 10	< 10	–
CNC(=O)c1c(-c2ccc(F)cc2)oc2cc3c(cc12)C(C)OCC(CO)N3S(C)(=O)=O (stereo not shown) [Compound B219]	10 to 100	10 to 100	–
CNC(=O)c1c(-c2ccc(F)cc2)oc2cc3c(cc12)C(C)OC(CNS(C)(=O)=O)CN3S(C)(=O)=O (stereo not shown) [Compound B220]	10 to 100	10 to 100	–
CNC(=O)c1c(-c2ccc(F)cc2)oc2cc3c(cc12)C(C)OC(CNC(=O)OC)CN3S(C)(=O)=O (stereo not shown) [Compound B221]	≤ 10	< 10	–
CNC(=O)c1c(-c2ccc(F)cc2)oc2cc3c(cc12)C(C)OC(CN(C)C)CN3S(C)(=O)=O (stereo not shown) [Compound B222]	10 to 100	10 to 100	–
CNC(=O)c1c(-c2ccc(F)cc2)oc2cc3c(cc12)C(C)OC(C(=O)N(C)C)CN3S(C)(=O)=O (stereo not shown) [Compound B223]	10 to 100	10 to 100	–
CNC(=O)c1c(-c2ccc(Oc3ccc(F)cc3)cc2)oc2cc3c(cc12)[C@H](C)O[C@@H](CS(C)(=O)=O)CN3S(C)(=O)=O [Compound B224]	10 to 100	10 to 100	–
CNC(=O)c1c(-c2ccc(F)cc2)oc2cc3c(cc12)C(C)OCC(CS(C)(=O)=O)N3S(C)(=O)=O (stereo not shown) [Compound B225]	10 to 100	10 to 100	–
CNC(=O)c1c(-c2ccc(F)cc2)oc2cc3c(cc12)C(C)OC(CC#N)CN3S(C)(=O)=O (stereo not shown) [Compound B226]	≤ 10	< 10	–
CNC(=O)c1c(-c2ccc(F)cc2)oc2cc3c(cc12)C(C)OC(C(=O)N1CCCC1)CN3S(C)(=O)=O (stereo not shown) [Compound B227]	10 to 100	10 to 100	–
CNC(=O)c1c(-c2ccc(F)cc2)oc2cc3c(cc12)C(C)OC(C(=O)N1CCOCC1)CN3S(C)(=O)=O (stereo not shown) [Compound B228]	10 to 100	10 to 100	–
